In US8551999B2, “Heterocyclic compound and pharmaceutical composition thereof” (Otsuka Pharmaceutical Co., Ltd., priority 2007, dated 2013):
Counter-ions that a name gives are not always drawn.

What was measured:
STAT3 = assay: Inhibitory effect on IL-6-induced STAT3 phosphorylation in human myeloma cells (in vitro); format: cell-based; conditions: U266B1 human myeloma cells, IL-6 1 ng/mL, pSTAT3 (Y705) by flow cytometry
Description: The inhibitory effect of the test compound on phosphorylation of STAT3 (signal transducer and activator of transcription-3) in human myeloma cells ([…]) induced by interleukin-6 (IL-6) was examined using the modified method of Tochizawa S. et al. (J Immunol Methods. 2006 Jun. 30; 313(1-2): 29-37). In the study, U266B1 cells were seeded in an RPMI 1640 medium containing 10% fetal bovine serum (FBS) in a 12-well plate and incubated at 37° C. for 2 hours in the presence of carbon dioxide. After incubation, IL-6 was added to yield the concentration of 1 ng/mL and the cells were incubated at 37° C. for 15 minutes in the presence of 5% carbon dioxide. After fixation of the cells by the addition of a buffer containing formaldehyde (Lyse/Fix Buffer, BD Biosciences) at room temperature for 10 minutes, the suspension was centrifuged to remove the supernatant and the cells were treated with ice-cold methanol for 10 minutes to improve the permeability of the cell membrane. The cells were centrifuged to remove methanol and washed twice with Dulbecco's phosphate buffered saline (D-PBS) containing 2% fetal bovine serum (FBS). A fluorescence-labeled anti-phosphorylated STAT3 (pSTAT3) antibody (Alexa Fluor 488-labeled anti-pSTAT3 (Y705) antibody, BD Biosciences) was added for staining in an ice bath for 30 minutes.
The cells were washed once with 2% FBS-containing D-PBS and suspended in 2% FBS-containing D-PBS, and the fluorescence intensity was determined using a flow cytometer (FACS Sort, BD Biosciences). The ratio of fluorescence intensity in the test group to the control group (T/C) was determined from the difference in the geometric mean of pSTAT3 fluorescence intensity between the test compound group of each concentration and the non-stimulated control group according to the following equation by defining the difference in the geometric mean of pSTAT3 fluorescence intensity between the IL-6 induced control and the non-stimulated control as 100%. T/C(%)=([…] of pSTAT3 fluorescence intensity in the cells treated with the test compound—geometric mean of pSTAT3 fluorescence intensity in non-stimulated control)/(geometric mean of fluorescence intensity of IL-6-induced pSTAT3 in the control−geometric mean of pSTAT3 fluorescence intensity in non-stimulated control)×100.
The concentration of the test compound inhibiting phosphorylation of STATS at 50% (IC50; concentration of the test compound corresponding to 50% T/C(%)) was determined using T/C(%) values at the respective concentrations and defined as the index for the inhibitory activity.

[1] = system: LI90 cells, a human hepatic stellate cell line; assay: Inhibitory effect on collagen synthesis (in vitro); format: cell-based; conditions: in the presence of recombinant human TGF-β1, 3H-proline labelled collagen in supernatant
Description: Inhibitory Effect on Collagen Synthesis (In Vitro)
LI90 cells, a human hepatic stellate cell line, were suspended in DMEM (Dulbecco's modified eagle medium) supplemented with 10% inactivated FBS (fetal bovine serum), seeded on a 12-well plate and cultured in a CO2 incubator (preset temperature: 37° C., preset CO2 concentration: 5%). After being cultured for 24 hours, the cells were washed with D-PBS (Dulbecco's phosphate buffered saline), placed in MEM (Eagle's minimum essential medium) supplemented with 0.1% inactivated FBS and then cultured in a CO2 incubator. After being cultured for 3 days, the cells were again washed with D-PBS, placed in MEM (Eagle's minimum essential medium) supplemented with 0.1% inactivated FBS and treated with or without a test compound in the presence of […] recombinant human TGF-β1 (transforming growth factor-β1) in a CO2 incubator for 16 hours. After the incubation, the cells were washed with D-PBS and the medium was replaced with MEM containing 0.25 mM ascorbate. A radio-labeled compound, ^3H-proline, was then added to the culture medium to radio-label the collagen proteins produced. After being cultured for 24 hours, the supernatant was collected and the collagen proteins were extracted from the supernatant as acid-soluble fractions. The amount of collagen produced was determined by measuring the radioactivity contained in the fractions. A concentration of test compound that produced 50% inhibition [IC50 value (nM)] on collagen synthesis was calculated by comparing the radioactivity count in a supernatant of test-compound-treated cells with that of untreated cells (control).

Compound | IC50 (STAT3) [nM] | melting point | IC50 [1] [nM]
Br.CCCOc1ccc(CN2CCN(C(=O)c3cc4ccc(Oc5ccc(N(C)C(=O)c6ccc(C(F)(F)F)cc6)cn5)cc4n3C)CC2)cc1 [Example 420, N-Methyl-N-(6-{1-methyl-2-[4-(4-propoxybenzyl)piperazine-1-carbonyl]-1H-indol-6-yloxy}pyridin-3-yl)-4-trifluoromethyl-benzamide hydrobromide] | < 10 | 246 to 248 °C | 
CCOc1ccc(CN2CCN(C(=O)c3cc4cc(Oc5ccc(N(C)C(=O)c6ccc(C(F)(F)F)cc6)cn5)ccc4n3C)CC2)nc1.O=C(O)/C=C\C(=O)O [Example 417, N-(6-{2-[4-(5-Ethoxypyridin-2-ylmethyl)piperazine-1-carbonyl]-1-methyl-1H-indol-5-yloxy}pyridin-3-yl)-N-methyl-4-trifluoromethyl-benzamide maleate] | < 10 | 129 to 130 °C | 
CC(C)Oc1ccc(CN2CCN(C(=O)c3cc4ccc(Oc5ccc(N(C)S(=O)(=O)c6ccc(Cl)c(Cl)c6)cn5)cc4n3C)CC2)cc1 [Example 507, 3,4-Dichloro-N-(6-{2-[4-(4-isopropoxybenzyl)piperazine-1-carbonyl]-1-methyl-1H-indol-6-yloxy}pyridin-3-yl)-N-methyl-benzenesulfonamide] | < 10 | 186.8 to 187 °C | 
COc1ccc(CN(C)C2CCN(C(=O)c3cc4cc(Oc5ccc(NC(=O)c6ccc(C(F)(F)F)cc6)cn5)ccc4n3C)CC2)cc1 [Example 232, N-[6-(2-{4-[(4-Methoxybenzyl)methylamino]piperidine-1-carbonyl}-1-methyl-1H-indol-5-yloxy)pyridin-3-yl]-4-trifluoromethyl-benzamide oxalate] |  |  | < 10
COc1ccc(CN2CCN(C(=O)c3cc4cc(Oc5ncc(NC(=O)c6ccc(C(F)(F)F)cc6)cn5)ccc4n3C)CC2)cc1 [Example 380, N-(2-{2-[4-(4-Methoxybenzyl)piperazine-1-carbonyl]-1-methyl-1H-indol-5-yloxy}pyrimidin-5-yl)-4-trifluoromethylbenzamide] |  | 179 to 180 °C | < 10
COc1ccc(/C=C/CN2CCN(C(=O)c3cc4cc(Oc5ccc(NC(=O)c6ccc(C(F)(F)F)cc6)cn5)ccc4n3C)CC2)cc1.CS(=O)(=O)O [Example 357, N-[6-(2-{4-[(E)-3-(4-Methoxyphenyl)allyl]piperazine-1-carbonyl}-1-methyl-1H-indol-5-yloxy)pyridin-3-yl]-4-trifluoromethyl-benzamide methanesulfonate] |  | 246 to 249 °C (dec.) | < 10
Br.CN(C(=O)c1ccc(OC(F)(F)F)cc1)c1ccc(Oc2ccc3cc(C(=O)N4CCN(Cc5ccc(OC(CF)CF)cc5)CC4)n(C)c3c2)nc1 [Example 279, N-[6-(2-{4-[4-(2-Fluoro-1-fluoromethylethoxy)benzyl]piperazine-1-carbonyl}-1-methyl-1H-indol-6-yloxy)pyridin-3-yl]-N-methyl-4-tri-fluoromethoxybenzamide hydrobromide] |  | 227.5 to 230.3 °C | < 10
Cc1ccc(S(=O)(=O)N(C)c2ccc(Oc3ccc4cc(C(=O)N5CCN(Cc6ccc(OCC(F)(F)F)cc6)CC5)[nH]c4c3)nc2)cc1 [Example 41, 4,N-Dimethyl-N-[6-(2-{4-[4-(2,2,2-trifluoroethoxy)benzyl]-piperazine-1-carbonyl}-1H-indol-6-yloxy)pyridin-3-yl]benzene-sulfonamide] |  | 184 to 184.2 °C | < 10
CC(C)Oc1ccc(CN2CCN(C(=O)c3cc4ccc(Oc5ncc(N(C)S(=O)(=O)c6ccc(Cl)c(Cl)c6)cn5)cc4n3C)CC2)cc1 [Example 43, 3,4-Dichloro-N-(2-{2-[4-(4-isopropoxybenzyl)piperazine-1-carbonyl]-1-methyl-1H-indol-6-yloxy}pyrimidin-5-yl)-N-methyl-benzenesulfonamide] |  | 191.2 to 193 °C | < 10
CC(C)CN1CCN(C(=O)c2cc3cc(Oc4ccc(NC(=O)c5ccc(C(F)(F)F)cc5)cn4)ccc3n2C)CC1 [Example 547, N-{6-[2-(4-isobutylpiperazine-1-carbonyl)-1-methyl-1H-indol-5-yloxy]pyridin-3-yl}-4-trifluoromethylbenzamide] |  |  | < 10
Br.Cn1c(C(=O)N2CCN(Cc3cnc(-c4ccc(C(F)(F)F)cc4)s3)CC2)cc2cc(Oc3ccc(NC(=O)c4ccc(C(F)(F)F)cc4)cn3)ccc21 [Example 572, N-[6-(1-Methyl-2-{4-[2-(4-trifluoromethylphenyl)thiazol-5-yl-methyl]piperazine-1-carbonyl}-1H-indol-5-yloxy)pyridin-3-yl]-4-trifluoromethylbenzamide hydrobromide] |  | 218.9 to 220.8 °C | < 10
CCCOc1ccc(CN2CCN(C(=O)c3cc4cc(Oc5ccc(N(C)C(=O)c6ccc(C(F)(F)F)cc6)cn5)ccc4n3C)CC2)cc1.O=C(O)/C=C\C(=O)O [Example 413, N-Methyl-N-(6-{1-methyl-2-[4-(4-propoxybenzyl)piperazine-1-carbonyl]-1H-indol-5-yloxy}pyridin-3-yl)-4-trifluoromethyl-benzamide maleate] |  | 144 to 147 °C | 
Br.CN(C(=O)c1ccc(Cl)c(Cl)c1)c1ccc(Oc2ccc3cc(C(=O)N4CCN(Cc5ccc(OC(CF)CF)cc5)CC4)n(C)c3c2)nc1 [Example 485, 3,4-Dichloro-N-[6-(2-{4-[4-(2-fluoro-1-fluoromethylethoxy)-benzyl]piperazine-1-carbonyl}-1-methyl-1H-indol-6-yloxy)pyridin-3-yl]-N-methylbenzamide hydrobromide] |  | 188.2 to 191.8 °C | 
Br.Cn1c(C(=O)N2CCN(Cc3ccc(OC(CF)CF)cc3)CC2)cc2ccc(Oc3ccc(NC(=O)c4ccc(Cl)c(Cl)c4)cn3)cc21 [Example 470, 3,4-Dichloro-N-[6-(2-{4-[4-(2-fluoro-1-fluoromethylethoxy)-benzyl]piperazine-1-carbonyl}-1-methyl-1H-indol-6-yloxy)pyridin-3-yl]benzamide hydrobromide] |  | 242.8 to 243.9 °C | 
Br.Cc1cc(Oc2ccc3cc(C(=O)N4CCN(Cc5ccc(OCC(F)(F)F)cc5)CC4)n(C)c3c2)ncc1NC(=O)c1ccc(C(F)(F)F)cc1 [Example 46, N-[4-Methyl-6-(1-methyl-2-{4-[4-(2,2,2-trifluoroethoxy)benzyl]-piperazine-1-carbonyl}-1H-indol-6-yloxy)pyridin-3-yl]-4-tri-fluoromethylbenzamide hydrobromide] |  | 222.4 to 224.6 °C | 
Br.COc1ccc(CN2CCN(C(=O)c3cc4cc(Oc5ccc(NC(=O)c6ccc(C(F)(F)F)cc6C)cn5)ccc4n3C)CC2)cc1 [Example 14, N-(6-{2-[4-(4-Methoxybenzyl)piperazine-1-carbonyl]-1-methyl-1H-indol-5-yloxy}pyridin-3-yl)-2-methyl-4-trifluoromethylbenzamide hydrobromide] |  | 249 to 251 °C | 
CN(c1ccc(Oc2ccc3cc(C(=O)N4CCN(Cc5ccc(OCC(F)F)cc5)CC4)n(C)c3c2)nc1)S(=O)(=O)c1ccc(Cl)c(Cl)c1 [Example 512, 3,4-Dichloro-N-[6-(2-{4-[4-(2,2-difluoroethoxy)benzyl]piperazine-1-carbonyl}-1-methyl-1H-indol-6-yloxy)pyridin-3-yl]-N-methyl-benzenesulfonamide] |  | 168.4 to 168.6 °C | 
